Values of other authors in patent US10548906B2, “Methods of promoting hepatic regeneration” (Intercept Pharmaceuticals, Inc., priority 2015, dated 2020).

Key:
[1] = system: cholestatic animals; details: cited from earlier work
[2] = system: Ntcp; details: mice with intrahepatic (but not extrahepatic) cholestasis; cited from earlier work
[3] = system: mice; details: diet enriched with cholic acid, FXR dependent; cited from earlier work

SMILES | biliary injury [1] | further results
C[C@H](CCC(=O)O)[C@H]1CC[C@H]2[C@@H]3[C@@H](O)C[C@@H]4C[C@H](O)CC[C@]4(C)[C@H]3CC[C@]12C [ursodeoxycholic acid] | increase in biliary injury | 
CC(C)c1onc(-c2c(Cl)cccc2Cl)c1COc1ccc(/C=C/c2cccc(C(=O)O)c2)c(Cl)c1 [GW4064] |  | Ntcp regulation [2]: loss of Ntcp suppression
C[C@H](CCC(=O)O)[C@H]1CC[C@H]2[C@@H]3[C@H](O)C[C@@H]4C[C@H](O)CC[C@]4(C)[C@H]3C[C@H](O)[C@]12C [cholic acid] |  | liver growth [3]: induced spontaneous liver growth
Cc1c(-c2cnccn2)ssc1=S [oltipraz] | increase in biliary injury | 
